Experimental data taken from US8192962B2, “Processes for detecting toxic substances” (Daikin Industries, Ltd., priority 2001, dated 2012).

System: Metabolism protein genes
Experiment: DNA chip mRNA expression in yeast, metabolism protein genes (Table 7)
Format: cell-based, Saccharomyces cerevisiae S288C
Method: Yeast (Saccharomyces cerevisiae S288C (α SUC2mal mel gap2 CUP1)) were incubated at 25° C. on YPD medium (yeast extract 1%, polypepton 2%, glucose 2%). One of toxic chemical substances was added to the cells at logarithmic growth phase, and the cells were further incubated for two hours. Cells were cultured without any chemical substance in the same condition, and were used as control. Concentrations of the chemical substances were defined to inhibit the growth of the yeast but not lead to death.
After completion of the incubation, the culture was centrifuged to collect the cells. To the cells, sodium acetate buffer (50 mM sodium acetate, 10 mM EDTA, 1% SDS) was added, and the mixture was shaken at 65° C. for five minutes, followed by returning to room temperature, and obtaining the supernatant, of which the procedures were repeated two times. To the supernatant, ½ amount of a solution of phenol/chloroform was added, and the mixture was centrifuged to give a supernatant, which was added with an equal amount of chloroform, and the mixture was centrifuged to give a supernatant. To the supernatant, an equal amount of isopropanol containing 0.3 M sodium acetate was added, and the mixture was allowed to stand at room temperature for 30 minutes, after which the mixture was centrifuged to give a sediment of the whole RNAs. Seventy % ethanol was added to the sediment, and the mixture was again centrifuged to give a sediment, which was then dried and dissolved in water. mRNA was isolated from the whole RNAs as followings. In view of the fact that a poly A chain is attached to the 3′ terminus of mRNA, a polynucleotide having a poly T structure which was immobilized on the surface of latex beads was used to trap the mRNA, and then the mRNA was washed and eluted with spine column (Oligotex-dT30<Super>mRNA Purification Kit, Takara). Reverse transcription of the mRNA was conducted with a reverse transcriptase (Super Script II Reverse Transcriptase; catalogue No. 18064-014, GibcoBRL) using fluorescence-labeled nucleotides to give cDNAs that were introduced with Cy3-dUTP or Cy5-dUTP during the reverse transcription.
The labeled cDNAs were dissolved in TE buffer (10mM Tris-HCl/1 mM EDTA, pH8.0), and the solution was dropped on the DNA chip containing the whole genes of yeast (DNA Chip Research Inc. Japan) so that the cDNAs were hybridized on the DNA chip at 65° C. for over 12 hours. The fluoresces intensity of the DNA chip was read with a scanner, and the ratio relative to the fluorescence intensity resulting from the absence of chemical substance was estimated as the following, which is shown in Tables 1 to 9: […]

[Cl][Pb][Cl] [(4), PbCl2]
The level of expressed mRNA in the presence of chemical substance/The level of expressed mRNA in the absence of chemical substance (yeast gene YAL012W): 0.8
The level of expressed mRNA in the presence of chemical substance/The level of expressed mRNA in the absence of chemical substance (yeast gene YAL038W): 1.4
level of expressed mRNA in the presence/in the absence of chemical substance (yeast gene YBR003W): 1.9
level of expressed mRNA in the presence/in the absence of chemical substance (yeast gene YBR011C): 1.1
level of expressed mRNA in the presence/in the absence of chemical substance (yeast gene YBR020W): 1.9
The level of expressed mRNA in the presence of chemical substance/The level of expressed mRNA in the absence of chemical substance (yeast gene YBR023C): 1.1
The level of expressed mRNA in the presence of chemical substance/The level of expressed mRNA in the absence of chemical substance (yeast gene YBR029C): 1.0
The level of expressed mRNA in the presence of chemical substance/The level of expressed mRNA in the absence of chemical substance (yeast gene YBR183W): 2.9
The level of expressed mRNA in the presence of chemical substance/The level of expressed mRNA in the absence of chemical substance (yeast gene YBR222C): 0.8
The level of expressed mRNA in the presence of chemical substance/The level of expressed mRNA in the absence of chemical substance (yeast gene YBR256C): 1.3
The level of expressed mRNA in the presence of chemical substance/The level of expressed mRNA in the absence of chemical substance (yeast gene YCL009C): 0.5
The level of expressed mRNA in the presence of chemical substance/The level of expressed mRNA in the absence of chemical substance (yeast gene YCL064C): 0.8
level of expressed mRNA in the presence/in the absence of chemical substance (yeast gene YCR010C): 4.2
level of expressed mRNA in the presence/in the absence of chemical substance (yeast gene YCR034W): 0.9
The level of expressed mRNA in the presence of chemical substance/The level of expressed mRNA in the absence of chemical substance (yeast gene YCR048W): 0.6
The level of expressed mRNA in the presence of chemical substance/The level of expressed mRNA in the absence of chemical substance (yeast gene YCR098C): 2.0
The level of expressed mRNA in the presence of chemical substance/The level of expressed mRNA in the absence of chemical substance (yeast gene YDR019C): 4.0
level of expressed mRNA in the presence/in the absence of chemical substance (yeast gene YDR050C): 1.8
level of expressed mRNA in the presence/in the absence of chemical substance (yeast gene YDR073W): 1.4
level of expressed mRNA in the presence/in the absence of chemical substance (yeast gene YDR123C): 2.1
level of expressed mRNA in the presence/in the absence of chemical substance (yeast gene YDR178W): 2.2
level of expressed mRNA in the presence/in the absence of chemical substance (yeast gene YDR277C): 3.0
level of expressed mRNA in the presence/in the absence of chemical substance (yeast gene YDR284C): 2.9
level of expressed mRNA in the presence/in the absence of chemical substance (yeast gene YDR345C): 2.6
The level of expressed mRNA in the presence of chemical substance/The level of expressed mRNA in the absence of chemical substance (yeast gene YDR380W): 1.7
level of expressed mRNA in the presence/in the absence of chemical substance (yeast gene YDR400W): 0.7
level of expressed mRNA in the presence/in the absence of chemical substance (yeast gene YDR408C): 4.1
level of expressed mRNA in the presence/in the absence of chemical substance (yeast gene YDR483W): 2.0
The level of expressed mRNA in the presence of chemical substance/The level of expressed mRNA in the absence of chemical substance (yeast gene YDR497C): 1.3
The level of expressed mRNA in the presence of chemical substance/The level of expressed mRNA in the absence of chemical substance (yeast gene YDR502C): 1.2
The level of expressed mRNA in the presence of chemical substance/The level of expressed mRNA in the absence of chemical substance (yeast gene YDR516C): 2.1
level of expressed mRNA in the presence/in the absence of chemical substance (yeast gene YEL063C): 1.3
level of expressed mRNA in the presence/in the absence of chemical substance (yeast gene YER015W): 1.5
The level of expressed mRNA in the presence of chemical substance/The level of expressed mRNA in the absence of chemical substance (yeast gene YER026C): 1.0
The level of expressed mRNA in the presence of chemical substance/The level of expressed mRNA in the absence of chemical substance (yeast gene YER053C): 1.7
The level of expressed mRNA in the presence of chemical substance/The level of expressed mRNA in the absence of chemical substance (yeast gene YER069W): 1.4
level of expressed mRNA in the presence/in the absence of chemical substance (yeast gene YER081W): 1.4
The level of expressed mRNA in the presence of chemical substance/The level of expressed mRNA in the absence of chemical substance (yeast gene YER096W): 2.0
level of expressed mRNA in the presence/in the absence of chemical substance (yeast gene YER120W): 0.8
The level of expressed mRNA in the presence of chemical substance/The level of expressed mRNA in the absence of chemical substance (yeast gene YER178W): 1.0
level of expressed mRNA in the presence/in the absence of chemical substance (yeast gene YFL011W): 3.3
The level of expressed mRNA in the presence of chemical substance/The level of expressed mRNA in the absence of chemical substance (yeast gene YFL014W): 11.0
The level of expressed mRNA in the presence of chemical substance/The level of expressed mRNA in the absence of chemical substance (yeast gene YFL030W): 2.0
The level of expressed mRNA in the presence of chemical substance/The level of expressed mRNA in the absence of chemical substance (yeast gene YFL031W): 0.7
The level of expressed mRNA in the presence of chemical substance/The level of expressed mRNA in the absence of chemical substance (yeast gene YFL056C): 1.5
The level of expressed mRNA in the presence of chemical substance/The level of expressed mRNA in the absence of chemical substance (yeast gene YFL057C): 1.8
The level of expressed mRNA in the presence of chemical substance/The level of expressed mRNA in the absence of chemical substance (yeast gene YFR047C): 2.6
level of expressed mRNA in the presence/in the absence of chemical substance (yeast gene YGL012W): 1.2
The level of expressed mRNA in the presence of chemical substance/The level of expressed mRNA in the absence of chemical substance (yeast gene YGL022W): 0.3
level of expressed mRNA in the presence/in the absence of chemical substance (yeast gene YGL115W): 2.0
The level of expressed mRNA in the presence of chemical substance/The level of expressed mRNA in the absence of chemical substance (yeast gene YGL126W): 0.8
level of expressed mRNA in the presence/in the absence of chemical substance (yeast gene YGL205W): 0.8
The level of expressed mRNA in the presence of chemical substance/The level of expressed mRNA in the absence of chemical substance (yeast gene YGL209W): 2.6
The level of expressed mRNA in the presence of chemical substance/The level of expressed mRNA in the absence of chemical substance (yeast gene YGL248W): 0.7
The level of expressed mRNA in the presence of chemical substance/The level of expressed mRNA in the absence of chemical substance (yeast gene YGR037C): 0.8
The level of expressed mRNA in the presence of chemical substance/The level of expressed mRNA in the absence of chemical substance (yeast gene YGR055W): 0.7
level of expressed mRNA in the presence/in the absence of chemical substance (yeast gene YGR096W): 4.6
level of expressed mRNA in the presence/in the absence of chemical substance (yeast gene YGR191W): 1.5
The level of expressed mRNA in the presence of chemical substance/The level of expressed mRNA in the absence of chemical substance (yeast gene YGR194C): 2.1
level of expressed mRNA in the presence/in the absence of chemical substance (yeast gene YGR204W): 1.3
The level of expressed mRNA in the presence of chemical substance/The level of expressed mRNA in the absence of chemical substance (yeast gene YGR256W): 0.8
The level of expressed mRNA in the presence of chemical substance/The level of expressed mRNA in the absence of chemical substance (yeast gene YGR282C): 1.9
level of expressed mRNA in the presence/in the absence of chemical substance (yeast gene YGR288W): 2.6
level of expressed mRNA in the presence/in the absence of chemical substance (yeast gene YHR025W): 0.6
The level of expressed mRNA in the presence of chemical substance/The level of expressed mRNA in the absence of chemical substance (yeast gene YHR111W): 1.9
level of expressed mRNA in the presence/in the absence of chemical substance (yeast gene YHR123W): 1.0
The level of expressed mRNA in the presence of chemical substance/The level of expressed mRNA in the absence of chemical substance (yeast gene YHR137W): 1.7
The level of expressed mRNA in the presence of chemical substance/The level of expressed mRNA in the absence of chemical substance (yeast gene YHR174W): 1.2
The level of expressed mRNA in the presence of chemical substance/The level of expressed mRNA in the absence of chemical substance (yeast gene YHR176W): 1.4
level of expressed mRNA in the presence/in the absence of chemical substance (yeast gene YHR210C): 5.2
level of expressed mRNA in the presence/in the absence of chemical substance (yeast gene YIL006W): 2.9
The level of expressed mRNA in the presence of chemical substance/The level of expressed mRNA in the absence of chemical substance (yeast gene YIL045W): 2.2
The level of expressed mRNA in the presence of chemical substance/The level of expressed mRNA in the absence of chemical substance (yeast gene YIL107C): 1.5
The level of expressed mRNA in the presence of chemical substance/The level of expressed mRNA in the absence of chemical substance (yeast gene YIL154C): 0.8
The level of expressed mRNA in the presence of chemical substance/The level of expressed mRNA in the absence of chemical substance (yeast gene YIL155C): 3.7
The level of expressed mRNA in the presence of chemical substance/The level of expressed mRNA in the absence of chemical substance (yeast gene YIR034C): 0.6
The level of expressed mRNA in the presence of chemical substance/The level of expressed mRNA in the absence of chemical substance (yeast gene YIR036C): 1.8
The level of expressed mRNA in the presence of chemical substance/The level of expressed mRNA in the absence of chemical substance (yeast gene YJL031C): 1.3
The level of expressed mRNA in the presence of chemical substance/The level of expressed mRNA in the absence of chemical substance (yeast gene YJL068C): 1.6
The level of expressed mRNA in the presence of chemical substance/The level of expressed mRNA in the absence of chemical substance (yeast gene YJL088W): 0.5
The level of expressed mRNA in the presence of chemical substance/The level of expressed mRNA in the absence of chemical substance (yeast gene YJL099W): 1.3
level of expressed mRNA in the presence/in the absence of chemical substance (yeast gene YJL121C): 0.8
level of expressed mRNA in the presence/in the absence of chemical substance (yeast gene YJL167W): 1.1
The level of expressed mRNA in the presence of chemical substance/The level of expressed mRNA in the absence of chemical substance (yeast gene YJL172W): 1.5
level of expressed mRNA in the presence/in the absence of chemical substance (yeast gene YJL216C): 0.9
The level of expressed mRNA in the presence of chemical substance/The level of expressed mRNA in the absence of chemical substance (yeast gene YJL219W): 1.6
level of expressed mRNA in the presence/in the absence of chemical substance (yeast gene YJR077C): 1.6
The level of expressed mRNA in the presence of chemical substance/The level of expressed mRNA in the absence of chemical substance (yeast gene YJR137C): 0.8
level of expressed mRNA in the presence/in the absence of chemical substance (yeast gene YJR143C): 0.8
The level of expressed mRNA in the presence of chemical substance/The level of expressed mRNA in the absence of chemical substance (yeast gene YJR148W): 3.5
